From ChEMBL document CHEMBL3297726, “Isolation and structure elucidation of cystargamide, a lipopeptide from Kitasatospora cystarginea” (J Nat Prod, 2014)
Active and inactive are the calls of the source. Positions of bridges follow the written chain, without caps; N, C: chain ends. Non-standard residues stand in square brackets, D forms with d. Residues, ends and D or L forms follow the SMILES beside them. *: point of attachment. Trp(5-OH) = N[C@@H](Cc1c[nH]c2ccc(O)cc12)C(=O)O; Hpg = N[C@H](C(=O)O)c1ccc(O)cc1; X1 = CCCCCCCC1OC1C(=O)*

Columns and labels:
Assay type in all cases: functional, organism-based
Enterococcus faecium = experiment: Antimicrobial activity against vancomycin-resistant Enterococcus faecium EF379 assessed as growth inhibition at 128 ug/ml
Candida albicans = experiment: Antimicrobial activity against Candida albicans ATCC 14035 assessed as growth inhibition at 128 ug/ml
Staphylococcus aureus = experiment: Antimicrobial activity against methicillin-resistant Staphylococcus aureus ATCC 33591 assessed as growth inhibition at 128 ug/ml
Staphylococcus warneri = experiment: Antimicrobial activity against Staphylococcus warneri ATCC 17917 assessed as growth inhibition at 128 ug/ml

Measured: growth inhibition (GI)

CCCCCCCC1OC1C(=O)N[C@@H]1C(=O)N[C@@H](Cc2ccccc2)C(=O)N[C@@H](CCC(=O)O)C(=O)N[C@@H](Cc2c[nH]c3ccc(O)cc23)C(=O)N[C@@H](c2ccc(O)cc2)C(=O)NCC(=O)O[C@@H]1C (some centres undefined) (X1-TFE[Trp(5-OH)][Hpg]G; ester 1-C)
inactive: all assays above
